Data set [1] addresses T1, PPARα (Homo sapiens, UniProt Q07869).
T1 sequence (Q07869 200-468 limits assumed): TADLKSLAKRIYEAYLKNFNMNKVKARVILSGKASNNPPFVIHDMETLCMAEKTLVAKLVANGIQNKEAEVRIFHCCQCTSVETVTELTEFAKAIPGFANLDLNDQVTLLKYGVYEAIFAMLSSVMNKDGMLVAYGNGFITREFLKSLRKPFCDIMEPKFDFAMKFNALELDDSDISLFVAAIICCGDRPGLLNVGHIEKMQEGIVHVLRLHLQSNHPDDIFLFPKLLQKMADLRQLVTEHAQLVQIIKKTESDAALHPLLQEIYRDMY
The experiment in a line: PPAR transactivation test in crossed curves (HeLN luciferase reporter), PPARα. It is filed as cell-based. The settings on record: HeLN cells stably transfected with Gal-hPPARα and luciferase reporter; crossed curves vs reference agonist, Schild regression; read-out: PPAR alpha Kd app. The method, then:
(§1) Activation of the PPAR receptors by an agonist (activator) in HeLN cells leads to the expression of a reporter gene, luciferase, which, in the presence of a substrate, generates light. The modulation of the PPAR receptors is measured by quantifying the luminescence produced after incubation of the cells in the presence of a reference agonist. The ligands will displace the agonist from its site. The activity is measured by quantifying the light produced. This measurement makes it possible to determine the modulating activity of the compounds according to the invention by determining the constant representing the affinity of the molecule for the PPAR receptor. This value, which can fluctuate according to the basal activity and expression of the receptor, is called apparent Kd (KdApp, nM).
(§2) To determine this constant, “crossed curves” of the test product versus a reference agonist are carried out in a 96-well plate: 10 concentrations of the test product plus a 0 concentration are arranged in rows, and 7 concentrations of the agonist plus a 0 concentration are arranged in columns. This is 88 measurement points for 1 product and 1 receptor. The 8 remaining wells are used for repeatability controls.
(§3) Measurements are also carried out for the total agonist controls with the same products.
(§4) The HeLN cell lines used are stable transfectants containing the plasmids ERE-βGlob-Luc-SV-Neo (reporter gene) and PPAR (α, δ, γ) Gal-hPPAR. These cells are sown in 96-well plates at a rate of 10 000 cells per well in 100 μl of DMEM medium without phenol red and supplemented with 10% of delipidated calf serum. The plates are then incubated at 37° C., 7% CO2 for 16 hours.
(§5) The various dilutions of the test products and of the reference ligand are added at a rate of 5 μl per well. The plates are then incubated for 18 hours at 37° C., 7% CO2.
(§6) The culture medium is removed by inverting and 100 μl of a 1:1 mixture PBS/Luciferine is added to each well. After 5 minutes, the plates are read with the luminescence reader.
(§7) These AC50 are used for calculating the Schild regression by plotting a straight line corresponding to the Schild equation (“Quantitation in receptor pharmacology” Terry P. Kenakin, Receptors and Channels, 2001, 7, 371-385) which provides the values of Kd app (in nM).

Data set [2] addresses T2, PPARγ (Homo sapiens, UniProt P37231).
T2 sequence (P37231 238-505 limits assumed): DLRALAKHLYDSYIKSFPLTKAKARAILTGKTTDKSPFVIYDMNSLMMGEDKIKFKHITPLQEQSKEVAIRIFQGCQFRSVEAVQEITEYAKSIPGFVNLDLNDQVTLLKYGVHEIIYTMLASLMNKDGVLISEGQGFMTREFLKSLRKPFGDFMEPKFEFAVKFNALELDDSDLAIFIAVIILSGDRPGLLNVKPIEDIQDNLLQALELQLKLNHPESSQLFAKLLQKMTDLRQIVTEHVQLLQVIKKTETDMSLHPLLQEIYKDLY
The experiment in a line: PPAR transactivation test in crossed curves (HeLN luciferase reporter), PPARγ. It is filed as cell-based. The conditions noted are these: HeLN cells stably transfected with Gal-hPPARγ and luciferase reporter; crossed curves vs reference agonist, Schild regression; read-out: PPAR gamma Kd app. The method, then:
as §1, §2, §3, §4, §5, §6

For data set [3], the target named is T3, PPARδ (Homo sapiens, UniProt Q03181).
T3 sequence (Q03181 171-441 limits assumed): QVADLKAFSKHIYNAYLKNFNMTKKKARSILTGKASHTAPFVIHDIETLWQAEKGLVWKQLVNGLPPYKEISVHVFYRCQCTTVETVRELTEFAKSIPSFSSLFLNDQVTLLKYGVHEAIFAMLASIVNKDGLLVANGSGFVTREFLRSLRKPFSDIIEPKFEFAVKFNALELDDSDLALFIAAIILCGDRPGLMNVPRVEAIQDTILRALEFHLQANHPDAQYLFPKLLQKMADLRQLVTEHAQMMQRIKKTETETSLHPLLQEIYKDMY
The experiment in a line: PPAR transactivation test in crossed curves (HeLN luciferase reporter), PPARδ. It is filed as cell-based. The settings on record: HeLN cells stably transfected with Gal-hPPARδ and luciferase reporter; crossed curves vs reference agonist, Schild regression; read-out: PPARs delta Kd app. On the procedure:
as §1, §2, §3, §4, §5, §6, §7

`CCCCOc1cc(/C=C(\OCC)C(=O)O)ccc1OCCc1ccc(OS(C)(=O)=O)c(OC)c1` [Example 7, (Z)-3-{3-butoxy-4-[2-(4-methanesulfonyloxy-3-methoxy-phenyl)-ethoxy]-phenyl}-2-ethoxy-acrylic acid]: the melting point is 97 °C. Moreover, the Kd in data set [1] came to 250 nM. The Kd in data set [2] is 15 nM. For the compound `CCCCOc1cc(/C=C(\OCC)C(=O)O)ccc1OCCc1ccc(OS(C)(=O)=O)cc1OC` [Example 10, (Z)-3-{3-butoxy-4-[2-(4-methanesulfonyloxy-2-methoxy-phenyl)-ethoxy]-phenyl}-2-ethoxy-acrylic acid], the melting point is 112 °C. In turn, `CCCCOc1cc(/C=C(\OCC)C(=O)O)ccc1OCCc1ccc(OS(C)(=O)=O)c(Cl)c1` [Example 16, (Z)-3-{3-butoxy-4-[2-(3-chloro-4-methanesulfonyloxy-phenyl)-ethoxy]-phenyl}-2-ethoxy-acrylic acid] returned a melting point of 113 °C. Same read-out and setting: with `CCCCCOc1ccc(CCOc2ccc(/C=C(\OCC)C(=O)O)cc2OCCCC)cc1Cl` [Example 15, (Z)-3-{3-butoxy-4-[2-(3-chloro-4-pentyloxy-phenyl)-ethoxy]-phenyl}-2-ethoxy-acrylic acid] the figure was 95 °C; with `CCCCOc1cc(/C=C(\OCC)C(=O)O)ccc1OCCc1ccc(NS(=O)(=O)CCCC)cc1` [Example 22, (Z)-3-(4-{2-[4-(butane-1-sulfonylamino)-phenyl]-ethoxy}-3-butoxy-phenyl)-2-ethoxy-acrylic acid], 164 °C. Regarding `CCCCOc1cc(/C=C(\OCC)C(=O)O)ccc1OCCc1ccc(OS(=O)(=O)CCCC)c(Cl)c1` [Example 17, (Z)-3-(4-{2-[4-(butane-1-sulfonyloxy)-3-chloro-phenyl]-ethoxy}-3-butoxy-phenyl)-2-ethoxy-acrylic acid], the melting point came out at 80 °C. Moreover, the Kd in data set [1] turned out to be 60 nM. Moreover, the Kd in data set [3] is 1000 nM. For the same compound, the Kd in data set [2] was 8 nM. As to `CCCCOc1cc(/C=C(\OCC)C(=O)O)ccc1OCCc1ccc(OCC)c(F)c1` [Example 11, (Z)-3-{3-butoxy-4-[2-(4-ethoxy-3-fluoro-phenyl)-ethoxy]-phenyl}-2-ethoxy-acrylic acid], the melting point was 119 °C. Still for that read-out and setting: under `CCO/C(=C\c1ccc(OCCc2ccc(OCC)cc2)c(OC)c1)C(=O)O` [Example 19, (Z)-2-ethoxy-3-{4-[2-(4-ethoxy-phenyl)-ethoxy]-3-methoxy-phenyl}-acrylic acid] stands 121 °C.

Regarding `CCCCOc1cc(/C=C(\OCC)C(=O)O)ccc1OCCc1ccc(OS(=O)(=O)CCCC)c(OC)c1` [Example 8, (Z)-3-(4-{2-[4-(butane-1-sulfonyloxy)-3-methoxy-phenyl]-ethoxy}-3-butoxy-phenyl)-2-ethoxy-acrylic acid], the Kd in data set [1] amounted to 120 nM; in data set [3] it was 2000 nM; in data set [2], 15 nM.

Consider `CCCCS(=O)(=O)Oc1ccc(CCOc2ccc(/C=C(\OCC)C(=O)O)cc2OC)cc1` [Example 1, (Z)-3-(4-{2-[4-(butane-1-sulfonyloxy)-phenyl]-ethoxy}-3-methoxy-phenyl)-2-ethoxy-acrylic acid], for which the melting point was determined as 94 °C. Moreover, in data set [2], the Kd was 8 nM. `CCCCCOc1ccc(CCOc2ccc(/C=C(\OCC)C(=O)O)cc2OCCCC)cc1F` [Example 12, (Z)-3-{3-butoxy-4-[2-(3-fluoro-4-pentyloxy-phenyl)-ethoxy]-phenyl}-2-ethoxy-acrylic acid] registered a melting point of 102 °C. Consider `CCCCOc1cc(/C=C(\OCC)C(=O)O)ccc1CCCc1ccc(OS(=O)(=O)CCCC)c(OC)c1` [Example 3, (Z)-3-(4-{3-[4-(butane-1-sulfonyloxy)-3-methoxy-phenyl]-propyl}-3-butoxy-phenyl)-2-ethoxy-acrylic acid], for which the Kd in data set [1] came to 60 nM; in data set [3] it was 250 nM; in data set [2] it was 15 nM. In the case of `CCCCOc1cc(/C=C(\OCC)C(=O)O)ccc1OCCc1ccc(OS(=O)(=O)CCCC)cc1` [Example 6, (Z)-3-(4-{2-[4-(butane-1-sulfonyloxy)-phenyl]-ethoxy}-3-butoxy-phenyl)-2-ethoxy-acrylic acid], the values for the Kd in data set [1] and in data set [2] were 120 nM and 2 nM, respectively. `CCCCOc1cc(/C=C(\OCC)C(=O)O)ccc1OCCc1ccc(N(C)S(C)(=O)=O)cc1` [Example 23, (Z)-3-(3-butoxy-4-{2-[4-(methanesulfonyl-methyl-amino)-phenyl]-ethoxy}-phenyl)-2-ethoxy-acrylic acid] returned a melting point of 112 °C. For the compound `CCCCOc1cc(/C=C(\OCC)C(=O)O)ccc1OCCc1ccc(OS(=O)(=O)CCCC)cc1OC` [Example 9, (Z)-3-(4-{2-[4-(butane-1-sulfonyloxy)-2-methoxy-phenyl]-ethoxy}-3-butoxy-phenyl)-2-ethoxy-acrylic acid], the Kd in data set [1] worked out at 2000 nM; in data set [2], 8 nM. `CCCCOc1cc(/C=C(\OCC)C(=O)O)ccc1OCCc1ccc(OS(=O)(=O)CCCC)c(F)c1` [Example 13, (Z)-3-(4-{2-[4-(butane-1-sulfonyloxy)-3-fluoro-phenyl]-ethoxy}-3-butoxy-phenyl)-2-ethoxy-acrylic acid] returned a melting point of 99 °C. Besides, the Kd in data set [1] came out at 250 nM. Moreover, in data set [3], the Kd was 2000 nM. Moreover, the Kd in data set [2] was 8 nM.
